Key:
Format in all cases: functional
[1] = test system: Pseudoperonospora cubensis; assay: Antifungal activity against Pseudoperonospora cubensis in cucumber assessed as lesion area of the disease at 500 ug/ml after 7 days
Botrytis cinerea = assay: Antifungal activity against Botryotinia fuckeliana in cucumber cotyledon assessed as lesion area of the disease at 500 ug/ml after 4 days
Blumeria graminis = assay: Antifungal activity against Blumeria graminis in wheat plant assessed as lesion area of the disease at 500 ug/ml after 10 days
Puccinia recondita = assay: Antifungal activity against Puccinia recondita in wheat plant assessed as lesion area of the disease at 500 ug/ml after 10 days

Row | Compound | Activity [1] | Activity (Botrytis cinerea) | Activity (Blumeria graminis) | Activity (Puccinia recondita)
1 | CC(NC(=O)C1(c2ccccc2)CC1(Cl)Cl)c1ccc(Cl)cc1 (stereo unspecified) | >=80% | >=80% | >=80% | >=80%
2 | CCC1(C(=O)NCc2ccc(Cl)cc2)C(C)C1(Cl)Cl (stereo unspecified) | <20% | >=80% | >=80% | >=80%
3 | CCC1(C(=O)NCCc2cc(Br)cs2)C(C)C1(Cl)Cl (stereo unspecified) | 0% | <40% | >=80% | >=80%
4 | CCC1(C(=O)NC(C)Cc2ccc(Cl)cc2)C(C)C1(Cl)Cl (stereo unspecified) | >=80% | >=80% | >=80% | >=80%
5 | CC(C)(C)CC(=O)NCCc1csc(Cl)c1 | >=80% | >=80% | 1.5% | >=80%
6 | CC(NC(=O)C1(C(C)C)CC1(Cl)Cl)c1ccc(Cl)cc1 (stereo unspecified) | >=80% | >=80% | >=80% | <20%
7 | CCC1(C(=O)NCCc2csc(Cl)n2)C(C)C1(Cl)Cl (stereo unspecified) | 0% | >=80% | >=80% | 0.5%
8 | CCC(C)NC(=O)C1(CC)C(C)C1(Cl)Cl (stereo unspecified) | >=80% | <20% | >=80% | >=80%
9 | CCC1(C(=O)NC(C)c2csc(Cl)c2)C(C)C1(Cl)Cl (stereo unspecified) | <20% | >=80% | >=80% | >=80%
10 | CC1(C)C(Cl)(Cl)C1(C)C(=O)NCCc1csc(Cl)c1 (stereo unspecified) | >=80% | >=80% | <20% | 0.5%
11 | CCC1(C(=O)NCCc2ccc(Cl)cc2)C(C)C1(Cl)Cl (stereo unspecified) | 3.5% | >=80% | >=80% | >=80%
12 | CCC1(C(=O)NCCc2csc(Cl)c2)C(C)C1(Cl)Cl (stereo unspecified) | 0.5% | >=80% | >=80% | >=80%
13 | CC(C)(C)C(Br)C(=O)NCCc1csc(Cl)c1 (stereo unspecified) | >=80% | >=80% | >=80% | <20%
14 | CCC1(C(=O)NC(C)C2CC2(Cl)Cl)C(C)C1(Cl)Cl (stereo unspecified) | >=80% | >=80% | >=80% | >=80%
15 | CCC1(C(=O)NC(C)C2CCCC2)C(C)C1(Cl)Cl (stereo unspecified) | 0% | 3.5% | >=80% | >=80%
16 | CC1(C)C(C(=O)NCCc2csc(Cl)c2)C1(Cl)Cl (stereo unspecified) | 1.5% | >=80% | >=80% | 1.5%
17 | CCC1(C(=O)NC(C)C2CC3C=CC2C3)C(C)C1(Cl)Cl (stereo unspecified) | >=80% | <40% | >=80% | >=80%
18 | CCC1(C(=O)NCCc2ccc(F)cc2F)C(C)C1(Cl)Cl (stereo unspecified) | 0% | <20% | 2.5% | >=80%
19 | CC(C)(C)C(Cl)C(=O)NCCc1csc(Cl)c1 (stereo unspecified) | >=80% | >=80% | >=80% | >=80%
20 | CC(NC(=O)C1(C2CCCC2)CC1(Cl)Cl)c1ccc(Cl)cc1 (stereo unspecified) | >=80% | >=80% | >=80% | >=80%
21 | CCC1(C(=O)NC(C)C2CCC2)C(C)C1(Cl)Cl (stereo unspecified) | >=80% | >=80% | >=80% | >=80%
22 | CCC1(C(=O)NC(C)c2ccc(Cl)s2)C(C)C1(Cl)Cl (stereo unspecified) | >=80% | >=80% | >=80% | 1.5%
23 | CCC1(C(=O)NCCc2ccsc2)C(C)C1(Cl)Cl (stereo unspecified) | >=80% | >=80% | >=80% | <40%
24 | CCC1(C(=O)NCCc2ccc(Br)cc2)C(C)C1(Cl)Cl (stereo unspecified) | >=80% | >=80% | >=80% | >=80%
25 | CCC1(C(=O)NCCc2ccc(C(F)(F)F)cc2)C(C)C1(Cl)Cl (stereo unspecified) | >=80% | >=80% | 0.5% | >=80%
26 | CCC1(C(=O)NCCc2ccccc2Cl)C(C)C1(Cl)Cl (stereo unspecified) | >=80% | >=80% | >=80% | >=80%

Row | Compound | Activity [1] | Activity (Botrytis cinerea) | Activity (Blumeria graminis) | Activity (Puccinia recondita)
27 | CCCC1(C(=O)NCCc2csc(Cl)c2)CC1(Cl)Cl (stereo unspecified) | >=80% | 0.5% | >=80% | >=80%
28 | N#Cc1c[nH]cc1-c1cccc2c1OC(F)(F)O2 [FLUDIOXONIL] |  | 0% |  | 
29 | CCC1(C(=O)NCCCc2ccc(Cl)cc2)C(C)C1(Cl)Cl (stereo unspecified) | 0% | >=80% | >=80% | >=80%
30 | CCC1(C(=O)NCCc2ccc(F)cc2)C(C)C1(Cl)Cl (stereo unspecified) | >=80% | >=80% | <20% | <40%
31 | CCC1(C(=O)NC(C)C)C(C)C1(Cl)Cl (stereo unspecified) | 0% | 3.5% | >=80% | >=80%
32 | CCC1(C(=O)NCCc2ccc(C)cc2)C(C)C1(Cl)Cl (stereo unspecified) | >=80% | >=80% | 2.5% | >=80%
33 | CCC1(C(=O)NC(C)C2CCCCC2)C(C)C1(Cl)Cl (stereo unspecified) | >=80% | >=80% | >=80% | >=80%
34 | CC1(C(=O)NCCc2csc(Cl)c2)CC1(Cl)Cl (stereo unspecified) | 0.5% | >=80% | >=80% | 0.5%
35 | CCC1(C(=O)Nc2ccc(Cl)cc2)C(C)C1(Cl)Cl (stereo unspecified) | >=80% | >=80% | >=80% | >=80%
36 | CCC1(C(=O)NCCc2ccc(Cl)c(Cl)c2)C(C)C1(Cl)Cl (stereo unspecified) | 0% | >=80% | >=80% | 3.5%
37 | CCC1(C(=O)NCCc2ccccc2)C(C)C1(Cl)Cl (stereo unspecified) | 0% | >=80% | 0.5% | 1.5%
38 | CCC1(C(=O)NCCc2cccc(Cl)c2)C(C)C1(Cl)Cl (stereo unspecified) | 0% | >=80% | 2.5% | <40%
39 | CC(Cc1ccc(C(C)(C)C)cc1)CN1CCCCC1 (stereo unspecified) [FENPROPIDIN] |  |  | 0% | 
40 | CCC1(C(=O)NCC(C)c2ccc(Cl)cc2)C(C)C1(Cl)Cl (stereo unspecified) | <20% | >=80% | >=80% | >=80%
41 | CCC1(C(=O)NCCc2cc(Cl)c(Cl)s2)C(C)C1(Cl)Cl (stereo unspecified) | >=80% | >=80% | >=80% | >=80%
42 | CC(C)(C)C(C#N)C(=O)NCCc1csc(Cl)c1 (stereo unspecified) | >=80% | >=80% | >=80% | 1.5%
43 | maneb | 0% |  |  | 0%
44 | CCC1(C(=O)NC(C)C2CCCCCC2)C(C)C1(Cl)Cl (stereo unspecified) | 0% | >=80% | >=80% | >=80%
45 | CCC1(C(=O)NCCc2ccc(Cl)s2)C(C)C1(Cl)Cl (stereo unspecified) | >=80% | >=80% | >=80% | 1.5%
46 | CCC1(C(=O)NCCc2cc(Cl)cs2)C(C)C1(Cl)Cl (stereo unspecified) | >=80% | >=80% | >=80% | <40%
47 | CCC1(C(=O)NCCc2cc(Cl)sc2Cl)C(C)C1(Cl)Cl (stereo unspecified) | >=80% | >=80% | >=80% | >=80%
48 | CCC1(C(=O)NC(C)CC(F)(F)F)C(C)C1(Cl)Cl (stereo unspecified) | >=80% | >=80% | >=80% | >=80%
49 | CCC1(C(=O)NCCc2ccc(Cl)cc2Cl)C(C)C1(Cl)Cl (stereo unspecified) | >=80% | >=80% | >=80% | >=80%
50 | CCC1(C(=O)OCCc2csc(Cl)c2)C(C)C1(Cl)Cl (stereo unspecified) | <20% | 2.5% | >=80% | >=80%
51 | CC[C@@]1(C(=O)N[C@H](C)c2ccc(Cl)cc2)[C@@H](C)C1(Cl)Cl [CARPROPAMIDE] | 0.5% | >=80% | >=80% | >=80%

Source: ChEMBL document CHEMBL3045490, “N-Thiophenylethyl-2,2-dichloro-1-cyclopropanecarboxamides: modification of the amide part of carpropamid and examination of fungicidal activity” (2009)
